Source: patent publication US20230339886A1 (University of Florida Research Foundation, Incorporated, priority 2020, published 2023)

molecular target: T1, REV-ERBα LBD (human; residues 281-614 Δ324-422) (Homo sapiens, UniProt P20393, DEL324-422); assay: TR-FRET corepressor interaction assay (REV-ERBα LBD, FITC-SMRT peptide); type: biochemical; conditions: Table 2, read-out: REVERBα agonism (EC50 class, FRET assay)
T1 construct: 6×Histag-REV-ERBα LBD (human; residues 281-614 Δ324-422); made in house; host or cells: Escherichia coli
Procedure, shortened: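 Compound serial dilutions (in DMSO, triplicate) incubated 2 h at 4 °C; Tb donor excited at 340 nm, emission read at 495 nm and FITC acceptor at 520 nm. TR-FRET ratio (520/495 nm) plotted against ligand concentration and fitted to a sigmoidal dose-response curve.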

T1 sequence (P20393 with tags, fused parts or gaps DEL324-422): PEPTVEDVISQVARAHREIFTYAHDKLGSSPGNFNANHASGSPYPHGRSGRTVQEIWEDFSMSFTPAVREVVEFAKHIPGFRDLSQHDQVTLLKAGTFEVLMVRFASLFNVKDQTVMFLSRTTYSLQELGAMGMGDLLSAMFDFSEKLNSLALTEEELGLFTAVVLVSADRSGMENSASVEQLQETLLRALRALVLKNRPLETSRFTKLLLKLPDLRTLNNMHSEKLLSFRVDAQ
T1 sequence (Q9Y618 2335-2356 partner limits assumed): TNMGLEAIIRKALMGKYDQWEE

EC50 | SMILES
> 3 µM | CCC(=O)n1cc(CNS(=O)(=O)N(C)C)c2ccc(-c3ccncc3)cc21 [Example 187, 1-(3-{[(dimethylsulfamoyl)amino]methyl}-6-(pyridin-4-yl)-1H-indol-1-yl)propan-1-one]
< 0.5 µM | CCC(C)C(=O)n1cc(CNS(=O)(=O)N(C)C)c2ccc(-c3ccncc3)cc21 (centres unmarked) [Example 188, 1-(3-{[(dimethylsulfamoyl)amino]methyl}-6-(pyridin-4-yl)-1H-indol-1-yl)-2-methylbutan-1-one]
< 0.5 µM | CN(C)S(=O)(=O)NCCn1cc(CC(C)(C)C)c2cc(-c3ccncc3)ccc21 [Example 189, N-{2-[5-(pyridin-4-yl)-3-(2,2-dimethylpropyl)-1H-indol-1-yl]ethyl}-N,N-dimethylsulfuric diamide]
< 0.5 µM | CN(C)S(=O)(=O)NCCn1cc(CC(C)(C)C)c2cc(-c3ccccc3Cl)ccc21 [Example 190, N-{2-[5-(2-chlorophenyl)-3-(2,2-dimethylpropyl)-1H-indol-1-yl]ethyl}-N,N-dimethyl-sulfuric diamide]
> 3 µM | CN(C)C(=O)n1cc(CCNS(=O)(=O)N(C)C)c2ccc(-c3ccncc3)cc21 [Example 194, 3-(2-((N,N-dimethylsulfamoyl)amino)ethyl)-N,N-dimethyl-6-(pyridin-4-yl)-1H-indole-1-carboxamide]
< 0.5 µM | CC(C)C(=O)n1cc(C(C)NS(=O)(=O)N(C)C)c2ccc(-c3ccccc3Cl)cc21 (centres unmarked) [Example 196, 1-[6-(2-chlorophenyl)-3-{1-[(dimethylsulfamoyl)amino]ethyl}-1H-indol-1-yl]-2-methylpropan-1-one]
< 0.5 µM | CC(NS(=O)(=O)N(C)C)c1cn(C(=O)C(C)(C)C)c2cc(-c3ccncc3)ccc12 (centres unmarked) [Example 197, 1-(3-{1-[(dimethylsulfamoyl)amino]ethyl}-6-(pyridin-4-yl)-1H-indol-1-yl)-2,2-dimethylpropan-1-one]
> 3 µM | Cc1cc(-c2ccncc2)cc2c1c(CCNS(=O)(=O)N(C)C)cn2CC(C)C [Example 202, dimethyl({2-[4-methyl-1-(2-methylpropyl)-6-(pyridin-4-yl)-1H-indol-3-yl]ethyl}sulfamoyl)amine]
< 0.5 µM | CC(C)Cn1cc(C(C)NS(=O)(=O)C2CC2)c2ccc(-c3ccccc3C(F)(F)F)cc21 (centres unmarked) [Example 204, N-(1-(1-isobutyl-6-(2-(trifluoromethyl)phenyl)-1H-indol-3-yl)ethyl)cyclopropanesulfonamide]
> 3 µM | CC(C)Cn1cc(C2(NS(=O)(=O)N(C)C)CC2)c2ccc(-c3ccncc3)cc21 [Example 207, dimethyl({1-[1-(2-methylpropyl)-6-(pyridin-4-yl)-1H-indol-3-yl]cyclopropyl}sulfamoyl)amine]
< 0.5 µM | CC(C)Cn1cc(C(NS(=O)(=O)C2CC2)C(F)(F)F)c2ccc(-c3ccccc3C(F)(F)F)cc21 (centres unmarked) [Example 208]
< 0.5 µM | CC(C)(C)Cc1cn(CCNS(=O)(=O)C2CC2)c2ccc(-c3cccc4ccccc34)cc12 [Example 209, N-(2-(5-(naphthalen-1-yl)-3-neopentyl-1H-indol-1-yl)ethyl)cyclopropane-sulfonamide]
0.5 to 3 µM | CC(C)(C)Cc1cn(CCNS(=O)(=O)C2CC2)c2ccc(-c3ccc4ccccc4c3)cc12 [Example 210, N-(2-(5-(naphthalen-2-yl)-3-neopentyl-1H-indol-1-yl)ethyl)cyclopropane-sulfonamide]
0.5 to 3 µM | CC(C)(C)Cc1cn(CCNS(=O)(=O)C2CC2)c2ccc(-c3ccc4cc(O)ccc4c3)cc12 [Example 211, N-(2-(5-(6-hydroxynaphthalen-2-yl)-3-neopentyl-1H-indol-1-yl)ethyl)cyclopropane sulfonamide]

Second part, the molecule before the results:

SMILES | EC50
Cc1cc2c(cc1F)c(CCNS(=O)(=O)N(C)C)cn2CC(C)C [Example 170, ({2-[5-fluoro-6-methyl-1-(2-methylpropyl)-1H-indol-3-yl]ethyl}sulfamoyl)dimethylamine] | < 0.5 µM
CC(C)S(=O)(=O)NCCn1cc(CC(C)(C)C)c2cc(Br)ccc21 [Example 171, N-(2-(5-bromo-3-neopentyl-1H-indol-1-yl)ethyl)propane-2-sulfonamide] | 0.5 to 3 µM
CN(C)S(=O)(=O)NCCn1cc(CCC(F)(F)F)c2cc(Br)ccc21 [Example 172, N-{2-[5-bromo-3-(3,3,3-trifluoropropyl)-1H-indol-1-yl]ethyl}-N,N-dimethylsulfuric diamide] | 0.5 to 3 µM
CC(C)Cc1cn(CCS(=O)(=O)C(C)C)c2ccc(Br)cc12 [Example 173, 5-bromo-3-isobutyl-1-(2-(isopropylsulfonyl)ethyl)-1H-indole] | 0.5 to 3 µM
CC(C)Cc1cn(CCS(=O)(=O)C(C)(C)C)c2ccc(Br)cc12 [Example 174, 5-bromo-1-(2-(tert-butylsulfonyl)ethyl)-3-isobutyl-1H-indole] | 0.5 to 3 µM
CC(C)S(=O)(=O)CCn1cc(CC(C)(C)C)c2cc(Br)ccc21 [Example 175, 5-bromo-1-(2-(isopropylsulfonyl)ethyl)-3-neopentyl-1H-indole] | > 3 µM
CC(C)Cn1cc(CCNS(=O)(=O)N(C)C)c2cc(F)c(-c3ccncc3)cc21 [Example 176, ({2-[5-fluoro-1-(2-methylpropyl)-6-(pyridin-4-yl)-1H-indol-3-yl]ethyl}sulfamoyl)dimethylamine] | < 0.5 µM
CC(C)Cn1cc(C(C)(C)CNS(=O)(=O)N(C)C)c2ccc(-c3ccncc3)cc21 [Example 177, dimethyl({2-methyl-2-[1-(2-methylpropyl)-6-(pyridin-4-yl)-1H-indol-3-yl]propyl}sulfamoyl)amine] | 0.5 to 3 µM
CC(C)Cn1cc(C2(CNS(=O)(=O)N(C)C)CC2)c2ccc(-c3ccncc3)cc21 [Example 178, dimethyl[({1-[1-(2-methylpropyl)-6-(pyridin-4-yl)-1H-indol-3-yl]cyclopropyl}methyl)sulfamoyl]amine] | < 0.5 µM
CN(C)S(=O)(=O)NCCc1cn(CCC(F)(F)F)c2cc(-c3ccncc3)ccc12 [Example 179, dimethyl({2-[6-(pyridin-4-yl)-1-(3,3,3-trifluoropropyl)-1H-indol-3-yl]ethyl}sulfamoyl)amine] | < 0.5 µM
CC(C)C(=O)n1cc(CNS(=O)(=O)N(C)C)c2ccc(-c3ccncc3)cc21 [Example 182, 1-(3-{[(dimethylsulfamoyl)amino]methyl}-6-(pyridin-4-yl)-1H-indol-1-yl)-2-methylpropan-1-one] | 0.5 to 3 µM
CC(C)C(=O)n1cc(CNS(=O)(=O)N(C)C)c2ccc(-c3ccccc3Cl)cc21 [Example 183] | 0.5 to 3 µM
CC(C)C(=O)n1cc(CNS(=O)(=O)N(C)C)c2ccc(-c3ccnn3C)cc21 [Example 184, 1-(3-{[(dimethylsulfamoyl)amino]methyl}-6-(1-methyl-1H-pyrazol-5-yl)-1H-indol-1-yl)-2-methylpropan-1-one] | > 3 µM
CC(C)C(=O)n1cc(CNS(=O)(=O)N(C)C)c2ccc(-c3ccccc3C(F)(F)F)cc21 [Example 185, 1-(3-{[(dimethylsulfamoyl)amino]methyl}-6-[2-(trifluoromethyl)phenyl]-1H-indol-1-yl)-2-methylpropan-1-one] | < 0.5 µM
CN(C)S(=O)(=O)NCc1cn(C(=O)C(C)(C)C)c2cc(-c3ccncc3)ccc12 [Example 186, 1-(3-{[(dimethylsulfamoyl)amino]methyl}-6-(pyridin-4-yl)-1H-indol-1-yl)-2,2-dimethylpropan-1-one] | 0.5 to 3 µM
